# From ChEMBL document CHEMBL6177921, “Enhancing the antimycobacterial efficacy of pyridine-4-carbohydrazide: linkage to additional antimicrobial agents via oxocarboxylic acids” (RSC Med Chem, 2025)
# Key:
# Format in all cases: functional
# [1] = tested on: Mycobacterium tuberculosis; test: Antimycobacterial activity against STM/INH/EMB/RIF/CLO-resistant Mycobacterium tuberculosis clinical isolate Praha 1 assessed as bacterial growth inhibition incubated for 21 days by two-fold serial dilution method; details: Praha 1, 504 h, time 21 day
# [2] = tested on: Mycobacterium tuberculosis; test: Antimycobacterial activity against STM/INH/EMB/RIF/OFX resistant Mycobacterium tuberculosis clinical isolate 7357/1998 strain assessed as bacterial growth inhibition incubated for 21 days by two-fold serial dilution method; details: 7357/1998, 504 h, time 21 day
# [3] = tested on: Mycobacterium tuberculosis; test: Antimycobacterial activity against STM/INH/EMB/RIF/OFX/CLO resistant Mycobacterium tuberculosis clinical isolate 8666/2010 strain assessed as bacterial growth inhibition incubated for 21 days by two-fold serial dilution method; details: 8666/2010, 504 h, time 21 day
# [4] = tested on: Mycobacterium tuberculosis; test: Antimycobacterial activity against STM/INH/EMB/RIF/CLO-resistant Mycobacterium tuberculosis clinical isolate Praha 1 assessed as bacterial growth inhibition incubated for 14 days by two-fold serial dilution method; details: Praha 1, 336 h, time 14 day
# [5] = tested on: Mycobacterium tuberculosis; test: Antimycobacterial activity against STM/INH/EMB/RIF/OFX/GEN/AMK-resistant Mycobacterium tuberculosis clinical isolate Praha 131 assessed as bacterial growth inhibition incubated for 14 days by two-fold serial dilution method; details: Praha 131, 336 h, time 14 day
# [6] = tested on: Mycobacterium tuberculosis; test: Antimycobacterial activity against STM/INH/EMB/RIF/OFX/CLO resistant Mycobacterium tuberculosis clinical isolate 8666/2010 strain assessed as bacterial growth inhibition incubated for 14 days by two-fold serial dilution method; details: 8666/2010, 336 h, time 14 day
# [7] = tested on: Mycobacterium tuberculosis; test: Antimycobacterial activity against STM/INH/EMB/RIF/OFX/CLO resistant Mycobacterium tuberculosis clinical isolate Praha 4 assessed as bacterial growth inhibition incubated for 14 days by two-fold serial dilution method; details: Praha 4, 336 h, time 14 day
# [8] = tested on: Mycobacterium tuberculosis; test: Antimycobacterial activity against STM/INH/RIF resistant Mycobacterium tuberculosis clinical isolate 9449/2007 strain assessed as bacterial growth inhibition incubated for 21 days by two-fold serial dilution method; details: 9449/2007, 504 h, time 21 day
# [9] = tested on: Mycobacterium tuberculosis; test: Antimycobacterial activity against STM/INH/EMB/RIF resistant Mycobacterium tuberculosis clinical isolate 234/2005 assessed as bacterial growth inhibition incubated for 14 days by two-fold serial dilution method; details: 234/2005, 336 h, time 14 day
# [10] = tested on: Mycobacterium tuberculosis; test: Antimycobacterial activity against STM/INH/EMB/RIF/OFX resistant Mycobacterium tuberculosis clinical isolate 7357/1998 strain assessed as bacterial growth inhibition incubated for 14 days by two-fold serial dilution method; details: 7357/1998, 336 h, time 14 day
# [11] = tested on: Mycobacterium tuberculosis; test: Antimycobacterial activity against STM/INH/RIF resistant Mycobacterium tuberculosis clinical isolate 9449/2007 strain assessed as bacterial growth inhibition incubated for 14 days by two-fold serial dilution method; details: 9449/2007, 336 h, time 14 day
# [12] = tested on: Mycobacterium tuberculosis; test: Antimycobacterial activity against TM/INH/EMB/RIF/OFX/GEN/AMK-resistant Mycobacterium tuberculosis clinical isolate Praha 131 assessed as bacterial growth inhibition incubated for 21 days by two-fold serial dilution method; details: Praha 131, 504 h, time 21 day
# [13] = tested on: Mycobacterium tuberculosis; test: Antimycobacterial activity against STM/INH/EMB/RIF resistant Mycobacterium tuberculosis clinical isolate 234/2005 strain assessed as bacterial growth inhibition incubated for 21 days by two-fold serial dilution method; details: 234/2005, 504 h, time 21 day
# [14] = tested on: Mycobacterium tuberculosis; test: Antimycobacterial activity against STM/INH/EMB/RIF/OFX/CLO-resistant Mycobacterium tuberculosis clinical isolate Praha 4 assessed as bacterial growth inhibition incubated for 21 days by two-fold serial dilution method; details: Praha 4, 504 h, time 21 day
Structure (SMILES),MIC [1] [µM],MIC [2] [µM],MIC [3] [µM],MIC [4] [µM],MIC [5] [µM],MIC [6] [µM],MIC [7] [µM],MIC [8] [µM],MIC [9] [µM],MIC [10] [µM],MIC [11] [µM],MIC [12] [µM],MIC [13] [µM],MIC [14] [µM]
CNC(C)[C@@H]1CC[C@@H](N)[C@@H](O[C@H]2[C@H](O)[C@@H](O[C@H]3OC[C@](C)(O)[C@H](NC)[C@H]3O)[C@H](N)C[C@@H]2N)O1.CN[C@@H]1[C@@H](O)[C@@H](O[C@@H]2[C@@H](O)[C@H](O[C@H]3O[C@H](C(C)N)CC[C@H]3N)[C@@H](N)C[C@H]2N)OC[C@]1(C)O.CN[C@@H]1[C@@H](O)[C@@H](O[C@@H]2[C@@H](O)[C@H](O[C@H]3O[C@H](CN)CC[C@H]3N)[C@@H](N)C[C@H]2N)OC[C@]1(C)O (stereo partly drawn),1,1,4,1,> 17,4,0.5,1,0.26,1,1,> 17,0.26,0.5
C/C(=N\NC(=O)c1ccncc1)C(=O)Nc1ccc(Oc2ccccc2)cc1,16,16,16,16,16,16,16,16,8,16,16,16,16,16
C/C(=N\NC(=O)c1ccncc1)C(=O)Nc1ccc(S(=O)(=O)Nc2cc(C)on2)cc1,–,–,≥ 250,–,≥ 250,≥ 250,–,≥ 250,–,–,≥ 250,≥ 250,–,–
C/C(=N\NC(=O)c1ccncc1)C(=O)Nc1ccc(-c2ccccc2)cc1,64,125,64,32,32,64,64,64,64,64,64,64,125,64
C/C(=N\NC(=O)c1ccncc1)C(=O)Nc1ccc(Sc2ccc([N+](=O)[O-])cc2)cc1,–,–,≥ 250,–,≥ 250,≥ 250,–,≥ 250,–,–,≥ 250,≥ 250,–,–
CC1COc2c(N3CCN(C)CC3)c(F)cc3c(=O)c(C(=O)O)cn1c23 (stereo not drawn) [OFLOXACIN],1.4,11,11,1.4,22,11,> 22,2.8,0.7,11,2.8,> 17,0.7,> 22
